Counter-ions that a name gives are not always drawn. Like-named read-outs stand apart in the source and are kept apart here.

Holding throughout (assay type): cell-based, human
Assay [1] concerns HeLa (Cervix Adenocarcinoma). Kind of assay: Cell viability analysis, cervical cancer HeLa. To be noted: Homo sapiens, HeLa.
The subject of assay [2] is MKN-45 (Gastric Adenocarcinoma). Kind of assay: Cell viability analysis, gastric cancer MKN-45. The settings on record: Homo sapiens.
The test system of assay [3] is PC3 (p53−) (Prostate Adenocarcinoma). As to the kind of experiment: Cell viability analysis, prostate cancer PC3. To be noted: Homo sapiens, 72 h, read-out: cell viability (survival rate), PC3, drug 10 μM, 72 hours, WST-1, OD450 nm.
In assay [4] the test system is MCF7 (Mammary Gland, Adenocarcinoma). As to the kind of experiment: Cell viability analysis, breast cancer MCF7. To be noted: Homo sapiens.
The subject of assay [5] is A549 (Lung Adenocarcinoma). Kind of assay: Cell viability analysis, lung cancer A549. The settings on record: Homo sapiens.
Assay [6] concerns HL-60 (Acute Promyelocytic Leukemia). As to the kind of experiment: Cell viability analysis, leukemia HL-60. To be noted: Homo sapiens.
For a further assay, the system named is cancer cell lines. Kind of assay: Cell viability analysis (WST-1) on cancer cell lines. To be noted: drug 10 μM, 72 hours, WST-1; Table 3. (Tetrazolium dyes change colour on reduction, which living cells bring about.)
Assay [7] concerns HI650 (Lung Adenocarcinoma). Kind of assay: Cell viability analysis, lung cancer HI650. To be noted: Homo sapiens.
Assay [8] relates to TSGH-8301 (Urinary Bladder Carcinoma). Kind of assay: Cell viability analysis, bladder cancer TSGH-8301. The settings on record: Homo sapiens.
In assay [9] the test system is LoVo (Colorectal Adenocarcinoma). As to the kind of experiment: Cell viability analysis, colon cancer LoVo. To be noted: Homo sapiens, LoVo.
Assay [10] has as its system AGS (Gastric Adenocarcinoma). As to the kind of experiment: Cell viability analysis, gastric cancer AGS. To be noted: Homo sapiens.
Assay [11] relates to A375 (Amelanotic Melanoma). Kind of assay: Cell viability analysis, skin cancer A375. The settings on record: Homo sapiens.
Assay [12] has as its system HepG2 (Hepatocellular Carcinoma). As to the kind of experiment: Cell viability analysis, hepatic cancer HepG2. To be noted: Homo sapiens.
[13] abbreviates: 72 h, read-out: cell viability (survival rate), HeLa, drug 10 μM, 72 hours, WST-1, OD450 nm.
[14] abbreviates: MKN-45, 72 h, read-out: cell viability (survival rate), MKN-45, drug 10 μM, 72 hours, WST-1, OD450 nm.
[15] abbreviates: MCF7, 72 h, read-out: cell viability (survival rate), MCF7, drug 10 μM, 72 hours, WST-1, OD450 nm.
Where [16] appears, read: A549, 72 h, read-out: cell viability (survival rate), A549, drug 10 μM, 72 hours, WST-1, OD450 nm.
[17] abbreviates: HL-60, 72 h, read-out: cell viability (survival rate), HL-60, drug 10 μM, 72 hours, WST-1, OD450 nm.
Where [18] appears, read: NCI-H1650, 72 h, read-out: cell viability (survival rate), H1650, drug 10 μM, 72 hours, WST-1, OD450 nm.
Setting [19] is: 72 h, read-out: cell viability (survival rate), TSGH, drug 10 μM, 72 hours, WST-1, OD450 nm.
[20] abbreviates: 72 h, read-out: cell viability (survival rate), LoVo, drug 10 μM, 72 hours, WST-1, OD450 nm.
[21] abbreviates: 72 h, read-out: cell viability (survival rate), AGS, drug 10 μM, 72 hours, WST-1, OD450 nm.
The mark [22] stands for this setting: A-375, 72 h, read-out: cell viability (survival rate), A375, drug 10 μM, 72 hours, WST-1, OD450 nm.
The mark [23] stands for this setting: HepG2, 72 h, read-out: cell viability (survival rate), HepG2, drug 10 μM, 72 hours, WST-1, OD450 nm.

Regarding `CCN1CCN(C(=O)N[C@@H](C(=O)N[C@@H]2C(=O)N3C(C(=O)O)=C(CSc4nnnn4C)CS[C@H]23)c2ccc(O)cc2)C(=O)C1=O` [Cefoperazone (Cefobid), Cefoperazone], the viability at 10 µM in assay [1] (setting [13]) was determined as 91.7%; in [2] (setting [14]) it was 51.6%; in assay [3], 104%; in assay [4] (setting [15]), 50.1%; in [5] (setting [16]) it was 76.5%; in assay [6] (setting [17]) it was 111%. Also, the viability at 10 µM was found to be 98.4% in assay [7] (setting [18]); 60.3% in assay [8] (setting [19]); 105% in assay [9] (setting [20]); 98.6% in [10] (setting [21]); 90% in assay [11] (setting [22]). For the same compound, the “inhibition effect on different cancer cell lines” value with cancer cell lines is “significant inhibition effect”.

`COc1c(N2C[C@@H]3CCCN[C@@H]3C2)c(F)cc2c(=O)c(C(=O)O)cn(C3CC3)c12` [Moxifloxacin hydrochloride]: the viability at 10 µM in assay [1] (setting [13]) worked out at 92%; in assay [2] (setting [14]) it was 89%; in assay [3], 69.1%; in assay [4] (setting [15]), 90.3%; in [5] (setting [16]), 95.5%; in [6] (setting [17]) it was 97.1%. Moreover, the viability at 10 µM in assay [7] (setting [18]) came out at 70.9%; in assay [8] (setting [19]), 75.7%; in [9] (setting [20]) it was 102%; in assay [10] (setting [21]), 77.1%; in assay [11] (setting [22]), 94%. Moreover, the “inhibition effect on different cancer cell lines” value in the assay on cancer cell lines is “significant inhibition effect”.

Consider `Cc1ccnc(NS(=O)(=O)c2ccc(N)cc2)n1` [Sulfamerazine], for which the viability at 10 µM in assay [1] (setting [13]) is 92.3%; in assay [2] (setting [14]), 87.4%; in assay [3], 78.4%; in assay [4] (setting [15]) it was 79.8%; in [5] (setting [16]) it was 103%; in [6] (setting [17]), 105%. For the same compound, the viability at 10 µM turned out to be 108% in [7] (setting [18]); 90% in assay [8] (setting [19]); 99.6% in [9] (setting [20]); 87.9% in assay [10] (setting [21]); 80.4% in assay [11] (setting [22]). In addition, the “inhibition effect on different cancer cell lines” value in the assay with cancer cell lines is listed as “significant inhibition effect”.

As for `Cc1cc2nc3c(=O)[nH]c(=O)nc-3n(C[C@H](O)[C@H](O)[C@H](O)CO)c2cc1C` [Riboflavin (Vitamin B2), Riboflavin], the viability at 10 µM came to 128% in [1] (setting [13]); 87.3% in assay [2] (setting [14]); 79.4% in assay [3]; 67.6% in [5] (setting [16]); 90% in [6] (setting [17]); 51.1% in [7] (setting [18]). The viability at 10 µM is 79.7% in assay [8] (setting [19]), 83.3% in assay [9] (setting [20]), 74.9% in [10] (setting [21]) and 89.7% in assay [11] (setting [22]). The “inhibition effect on different cancer cell lines” value in the assay on cancer cell lines is reported as “significant inhibition effect”.

Turning to `Nc1ccc(S(N)(=O)=O)cc1` [Sulfanilamide], the viability at 10 µM in assay [1] (setting [13]) was 82.1%; in assay [2] (setting [14]), 59.1%; in [3], 111%; in [4] (setting [15]), 105%; in [5] (setting [16]), 82.7%; in assay [6] (setting [17]), 112%. Besides, the viability at 10 µM turned out to be 66.7% in assay [7] (setting [18]); 76.5% in [8] (setting [19]); 85% in assay [9] (setting [20]); 65.3% in [10] (setting [21]); 84.6% in assay [11] (setting [22]). In the assay on cancer cell lines, the “inhibition effect on different cancer cell lines” value was “significant inhibition effect”.

With `C[C@@H](c1ncncc1F)[C@](O)(Cn1cncn1)c1ccc(F)cc1F` [Voriconazole], the viability at 10 µM in [1] (setting [13]) worked out at 92.6%; in assay [2] (setting [14]) it was 104%; in [3], 97%; in assay [4] (setting [15]), 90.1%; in [5] (setting [16]), 82.9%; in assay [6] (setting [17]), 94.3%. The viability at 10 µM was 102% in assay [7] (setting [18]), 53.9% in assay [8] (setting [19]), 86.1% in assay [10] (setting [21]) and 102% in assay [11] (setting [22]). The “inhibition effect on different cancer cell lines” value with cancer cell lines is listed as “significant inhibition effect”.

For `Fc1ccc([C@@H]2CCNC[C@H]2COc2ccc3c(c2)OCO3)cc1` [Paroxetine HCl], the viability at 10 µM in assay [1] (setting [13]) was found to be 42.1%; in assay [2] (setting [14]), 49.2%; in [3], 70.6%; in [4] (setting [15]), 56.4%; in [5] (setting [16]), 80.1%; in assay [6] (setting [17]), 79.1%. The viability at 10 µM in [7] (setting [18]) turned out to be 44.1%; in [8] (setting [19]) it was 56.4%; in [10] (setting [21]), 21.5%; in assay [11] (setting [22]), 31.9%. The “inhibition effect on different cancer cell lines” value in the assay on cancer cell lines is reported as “significant inhibition effect”.

For `CCn1cc(C(=O)O)c(=O)c2ccc(C)nc21` [Nalidixic acid (NegGram), Nalidixic acid], the viability at 10 µM in assay [1] (setting [13]) worked out at 95.8%; in assay [12] (setting [23]) it was 96.8%; in assay [2] (setting [14]), 54.9%; in assay [4] (setting [15]) it was 86%; in assay [5] (setting [16]), 83.8%; in assay [6] (setting [17]) it was 113%. The viability at 10 µM was 72% in assay [7] (setting [18]); 46.3% in [8] (setting [19]); 91.5% in assay [9] (setting [20]); 57.3% in assay [10] (setting [21]); 87.9% in assay [11] (setting [22]). In addition, the “inhibition effect on different cancer cell lines” value with cancer cell lines is “significant inhibition effect”.

As to `C=C(NC(=O)C(=C)NC(=O)c1csc(C2=N[C@@H]3c4csc(n4)[C@H]4NC(=O)c5csc(n5)[C@H]([C@](C)(O)[C@@H](C)O)NC(=O)[C@H]5CSC(=N5)/C(=C/C)NC(=O)[C@H]([C@@H](C)O)NC(=O)c5csc(n5)[C@]3(CC2)NC(=O)[C@H](C)NC(=O)C(=C)NC(=O)[C@H](C)NC(=O)[C@H]([C@@H](C)CC)N[C@@H]2C=Cc3c([C@H](C)O)cc(nc3[C@H]2O)C(=O)O[C@@H]4C)n1)C(N)=O` [Thiostrepton], the viability at 10 µM amounted to 37.8% in assay [1] (drug 10 μM, 72 hours, WST-1, OD450 nm, read-out: cell viability (survival rate), HeLa); 49.2% in assay [12] (HepG2, drug 10 μM, 72 hours, WST-1, OD450 nm, read-out: cell viability (survival rate), HepG2); 56.7% in assay [2] (MKN-45, drug 10 μM, 72 hours, WST-1, OD450 nm, read-out: cell viability (survival rate), MKN-45); 65% in [4] (MCF7, drug 10 μM, 72 hours, WST-1, OD450 nm, read-out: cell viability (survival rate), MCF7); 62.2% in [5] (A549, drug 10 μM, 72 hours, WST-1, OD450 nm, read-out: cell viability (survival rate), A549); 37.8% in assay [6] (HL-60, drug 10 μM, 72 hours, WST-1, OD450 nm, read-out: cell viability (survival rate), HL-60). Moreover, the viability at 10 µM came out at 45.4% in assay [7] (NCI-H1650, drug 10 μM, 72 hours, WST-1, OD450 nm, read-out: cell viability (survival rate), H1650); 20.1% in assay [8] (drug 10 μM, 72 hours, WST-1, OD450 nm, read-out: cell viability (survival rate), TSGH); 52.9% in assay [9] (drug 10 μM, 72 hours, WST-1, OD450 nm, read-out: cell viability (survival rate), LoVo); 25.7% in assay [10] (drug 10 μM, 72 hours, WST-1, OD450 nm, read-out: cell viability (survival rate), AGS); 27.6% in [11] (A-375, drug 10 μM, 72 hours, WST-1, OD450 nm, read-out: cell viability (survival rate), A375). Besides, in the assay with cancer cell lines, the “inhibition effect on different cancer cell lines” value is recorded as “significant inhibition effect”.

As to `C[C@]12CCC(=O)C=C1CC[C@@H]1[C@@H]2[C@@H](O)C[C@@]2(C)[C@H]1CC[C@]2(O)C(=O)CO` [Hydrocortisone (Cortisol), Hydrocortisone], the viability at 10 µM in assay [1] (setting [13]) amounted to 86.1%; in assay [12] (setting [23]) it was 109%; in assay [2] (setting [14]) it was 81.3%; in assay [4] (setting [15]) it was 76.9%; in [5] (setting [16]), 73.6%; in assay [6] (setting [17]), 105%. For the same compound, the viability at 10 µM in assay [7] (setting [18]) turned out to be 66.1%; in assay [8] (setting [19]), 125%; in [9] (setting [20]), 83.3%; in assay [10] (setting [21]), 77.5%; in assay [11] (setting [22]) it was 87.6%. Moreover, in the assay with cancer cell lines, the “inhibition effect on different cancer cell lines” value is “significant inhibition effect”.

The viability is a read-out of living cells in per cent, often relative to untreated cells.

For the origin of these results see patent US10105357B2, “Indication of antibiotic drugs for preparation of cancer inhibition pharmaceutical composition” (LAUNX BIOMEDICAL CO., LTD., priority 2014, dated 2018).
